Test results from patent publication US20110159113A1, “HYPERBRANCHED POLYESTER AND A METHOD OF SYNTHESIZING A HYPERBRANCHED POLYESTER” (priority 2011, published 2011).

Tested on: tumor cells C26
Assay: MTT assay, in vitro cytotoxicity, 72 h incubation
Assay type: cell-based
Protocol: In vitro cytotoxicity of CDDP, P(CA8-G)-CDDP and P(CA12-G)-CDDP was evaluated by using a MTT assay. To measure cytotoxicity, tumor cells C26 were separately incubated in a plate with different concentrations of CDDP, P(CA8-G)-CDDP and P(CA12-G)-CDDP. The duration of incubation was 72 h. […] With respect to FIG. 13, it is concluded that, loading of cisplatin into the P(CA8-G)-CDDP and P(CA12-G)-CDDP influences its cytotoxicity. […] According to the MTT assay measurements, IC50 doses of free cisplatin, P(CA8-G)-CDDP and P(CA12-G)-CDDP were calculated. IC50 dose is the concentrations of active ingredients necessary to inhibit the cell growth by 50%.
P(CA12-G)-CDDP was synthesized in the same manner as explained above. P(CA8-G)-CDDP and P(CA12-G)-CDDP were used for MTT assay measurements.

N.N.[Cl][Pt][Cl] [CDDP, cis-dichlorodiammineplatinum (II)]
IC50: 37.9 µg/mL
